How the values were obtained:
Assay type in all cases: in vivo
Solanum nigrum (SOLNI) [1] = experiment: Post-emergence biological efficacy (percentage damage); details: Solanum nigrum, 312 h, dose 1,000 g/ha, evaluated after 13 days, 100=total damage, 0=no damage
In short: (§1)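 Pot-grown plants are cultivated 8 days under glasshouse conditions (24/16 °C, 14 h light, 65% humidity), sprayed at a dose of 250 or 1000 g/ha, kept under the same conditions with twice-daily watering, and rated for damage after 13 days.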

[2] = test system: Alopecurus myosuroides (ALOMY); experiment: as above; details: Alopecurus myosuroides, 312 h, dose 1,000 g/ha, evaluated after 13 days, 100=total damage, 0=no damage
In short: as §1

[3] = test system: Echinochloa crus-galli (ECHCG); experiment: as above; details: Echinochloa crus-galli, 312 h, dose 1,000 g/ha, evaluated after 13 days, 100=total damage, 0=no damage
In short: as §1

Setaria faberi (SETFA) [4] = experiment: as above; details: Setaria faberi, 312 h, dose 1,000 g/ha, evaluated after 13 days, 100=total damage, 0=no damage
In short: as §1

[5] = test system: Amaranthus retoflexus (AMARE); experiment: as above; details: Amaranthus retroflexus, 312 h, dose 1,000 g/ha, evaluated after 13 days, 100=total damage, 0=no damage
In short: as §1

[6] = test system: Ipomea hederaceae (IPOHE); experiment: as above; details: Ipomoea hederacea, 312 h, dose 1,000 g/ha, evaluated after 13 days, 100=total damage, 0=no damage
In short: as §1

Solanum nigrum (SOLNI) [7] = experiment: Pre-emergence biological efficacy (percentage damage); details: Solanum nigrum, 312 h, dose 1,000 g/ha, evaluated after 13 days, 100=total damage, 0=no damage
In short: (§2)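 Seeds were sown in standard soil in pots and, one day later, sprayed with test compound at 250 or 1000 g/ha in acetone/water (50:50) with 0.5% Tween 20. Plants grew in a glasshouse at 24/16 °C day/night, 14 h light, 65% humidity; damage was scored after 13 days (0 = none, 100 = total).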

[8] = test system: Alopecurus myosuroides (ALOMY); experiment: as above; details: Alopecurus myosuroides, 312 h, dose 1,000 g/ha, evaluated after 13 days, 100=total damage, 0=no damage
In short: as §2

[9] = test system: Echinochloa crus-galli (ECHCG); experiment: as above; details: Echinochloa crus-galli, 312 h, dose 1,000 g/ha, evaluated after 13 days, 100=total damage, 0=no damage
In short: as §2

Setaria faberi (SETFA) [10] = experiment: as above; details: Setaria faberi, 312 h, dose 1,000 g/ha, evaluated after 13 days, 100=total damage, 0=no damage
In short: as §2

[11] = test system: Amaranthus retoflexus (AMARE); experiment: as above; details: Amaranthus retroflexus, 312 h, dose 1,000 g/ha, evaluated after 13 days, 100=total damage, 0=no damage
In short: as §2

[12] = test system: Ipomea hederaceae (IPOHE); experiment: as above; details: Ipomoea hederacea, 312 h, dose 1,000 g/ha, evaluated after 13 days, 100=total damage, 0=no damage
In short: as §2

SMILES	pest or weed control at 1000 g/ha (Solanum nigrum (SOLNI) [1]) [%]	pest or weed control at 1000 g/ha [2] [%]	pest or weed control at 1000 g/ha [3] [%]	pest or weed control at 1000 g/ha (Setaria faberi (SETFA) [4]) [%]	pest or weed control at 1000 g/ha [5] [%]	pest or weed control at 1000 g/ha [6] [%]	pest or weed control at 1000 g/ha (Solanum nigrum (SOLNI) [7]) [%]	pest or weed control at 1000 g/ha [8] [%]	pest or weed control at 1000 g/ha [9] [%]	pest or weed control at 1000 g/ha (Setaria faberi (SETFA) [10]) [%]	pest or weed control at 1000 g/ha [11] [%]	pest or weed control at 1000 g/ha [12] [%]
CCc1c(N)nc(-c2ccc(C(F)(F)F)cc2)nc1C(=O)OC [Compound 31-42, 4-amino-5-ethyl-6-methoxycarbonyl-2-(4-trifluoro-methylphenyl)-pyrimidine]	10	0	0	0	0	0	0	0	0	0	0	0
COC(=O)c1nc(-c2ccc(C(F)(F)F)cc2)nc(N)c1C(C)=O [Compound 31-53, 4-amino-6-methoxycarbonyl-5-methylcarbonyl-2-(4-trifluoromethylphenyl)-pyrimidine]	100	90	100	100	100	90	100	80	90	90	100	90
C=Cc1c(N)nc(-c2ccc(C(F)(F)F)cc2)nc1C(=O)OC [Compound 31-61, 4-Amino-5-ethenyl-6-methoxycarbonyl-2-(4-trifluoromethyl-phenyl)-pyrimidine]	70	20	0	0	70	10	0	0	0	0	10	0
C/C=C/c1c(N)nc(-c2ccc(C(F)(F)F)cc2)nc1C(=O)OC [Compound 31-62, 4-amino-6-methoxycarbonyl-5-prop-1-enyl-2-(4-tri-fluoromethylphenyl)-pyrimidine]	50	0	0	10	30	50	0	0	0	0	20	0
C=CCc1c(N)nc(-c2ccc(C(F)(F)F)cc2)nc1C(=O)OC [Compound 31-63, 4-Amino-6-methoxycarbonyl-5-(prop-1-en-3-yl)-2-(4-trifluoromethyl-phenyl)-pyrimidine]	50	0	0	0	40	40	0	0	0	0	0	0
C=C(C)c1c(N)nc(-c2ccc(C(F)(F)F)cc2)nc1C(=O)OC [Compound 31-64, 4-Amino-6-methoxycarbonyl-5-(prop-1-en-2-yl)-2-(4-trifluoromethyl-phenyl)-pyrimidine]	60	0	0	20	40	60	0	0	0	0	0	0
C=C(OCC)c1c(N)nc(-c2ccc(C(F)(F)F)cc2)nc1C(=O)OC [Compound 31-67, 4-amino-5-(1-ethoxyethenyl)-6-methoxycarbonyl-2-(4-trifluoromethylphenyl)-pyrimidine]	80	0	0	0	50	80	0	0	0	0	0	0

Reference: patent US20120053053A1, “PYRIMIDINE DERIVATIVES AND THEIR USE AS HERBICIDES” (SYNGENTA CROP PROTECTION, LLC, priority 2009, published 2012)
